# Experimental data taken from ChEMBL document CHEMBL2203000, “Discovery of AC710, a Globally Selective Inhibitor of Platelet-Derived Growth Factor Receptor-Family Kinases” (ACS Med Chem Lett, 2012).
# Assays:
# [1] = (§1) Oral bioavailability in Sprague-Dawley rat plasma at 10 mg/kg by LC-MS/MS analysis; type: ADME, organism-based; conditions: Sprague-Dawley, plasma
# [2] = (§2) AUC in Sprague-Dawley rat plasma at 10 mg/kg, po by LC-MS/MS analysis; type: ADME, organism-based; design: dose 10 mg/kg, route oral; conditions: Sprague-Dawley, plasma
# [3] = Clearance in Sprague-Dawley rat plasma at 1 mg/kg, iv and 10 mg/kg, po by LC-MS/MS analysis; type: ADME, organism-based
# Rattus norvegicus [4] = assay: as §1; type: ADME, organism-based; conditions: in vivo
# Rattus norvegicus [5] = assay: as §2; type: ADME, organism-based; design: dose 10 mg/kg, route oral; conditions: in vivo
# [6] = Antitumor activity against mouse M-NFS-60 cells xenografted in CD-1 nude mouse assessed as inhibition of tumor growth at 100 mg/kg, po measured after 4 of tumor implantation; type: functional; conditions: read-out: TGI
# [7] = Antitumor activity against mouse M-NFS-60 cells xenografted in CD-1 nude mouse assessed as inhibition of tumor growth at 30 mg/kg, po measured after 4 of tumor implantation; type: functional; conditions: read-out: TGI
# [8] = Antitumor activity against mouse M-NFS-60 cells xenografted in CD-1 nude mouse assessed as inhibition of tumor growth at 10 mg/kg, po measured after 4 of tumor implantation; type: functional; conditions: read-out: TGI
# Rattus norvegicus [9] = assay: Toxicity in rat at 200 mg/kg administered for 7 days; type: organism-based; design: dose 200 mg/kg; conditions: in vivo, 168 h
# [10] = AUC in po dosed CD-1 mouse by LC-MS/MS analysis; type: ADME, organism-based; conditions: plasma
# Rattus norvegicus [11] = assay: Toxicity in rat assessed as diarrhea at 800 mg/kg administered for 7 days; type: organism-based; design: dose 800 mg/kg; conditions: in vivo, 168 h
# Cytochrome P450 3A4 = Cytochrome P450 3A4 (Homo sapiens, UniProt P08684); assay: Inhibition of CYP3A4; type: ADME
# Cytochrome P450 2C19 = Cytochrome P450 2C19 (Homo sapiens, UniProt P33261); assay: Inhibition of CYP2C19; type: ADME
# Cytochrome P450 2D6 = Cytochrome P450 2D6 (Homo sapiens, UniProt P10635); assay: Inhibition of CYP2D6; type: ADME
# Cytochrome P450 1A2 = molecular target: T1, Cytochrome P450 1A2 (Homo sapiens, UniProt P05177); assay: Inhibition of CYP1A2; type: ADME
# T1 sequence (P05177 whole entry): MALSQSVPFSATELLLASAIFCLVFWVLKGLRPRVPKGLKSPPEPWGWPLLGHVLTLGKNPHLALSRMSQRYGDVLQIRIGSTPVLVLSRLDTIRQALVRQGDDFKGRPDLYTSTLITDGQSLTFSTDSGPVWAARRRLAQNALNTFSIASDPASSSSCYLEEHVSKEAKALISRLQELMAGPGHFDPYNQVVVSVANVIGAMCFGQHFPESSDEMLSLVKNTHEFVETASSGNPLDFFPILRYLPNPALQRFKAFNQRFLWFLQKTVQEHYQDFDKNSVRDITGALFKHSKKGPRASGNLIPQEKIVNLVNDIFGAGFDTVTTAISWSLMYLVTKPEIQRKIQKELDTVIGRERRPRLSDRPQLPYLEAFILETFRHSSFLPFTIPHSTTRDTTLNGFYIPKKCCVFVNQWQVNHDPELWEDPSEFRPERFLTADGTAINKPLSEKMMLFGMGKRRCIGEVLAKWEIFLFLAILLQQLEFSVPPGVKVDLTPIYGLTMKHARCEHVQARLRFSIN
# Cytochrome P450 2C9 = Cytochrome P450 2C9 (Homo sapiens, UniProt P11712); assay: Inhibition of CYP2C9; type: ADME
# [12] = molecular target: T2, Mast/stem cell growth factor receptor Kit (Homo sapiens, UniProt P10721); assay: Binding affinity to KIT expressed in HEK-293 cells; type: cell-based, HEK293
# [13] = molecular target: T2, Mast/stem cell growth factor receptor Kit; assay: Inhibition of KIT phosphorylation in human H526 cells; type: cell-based
# NFS-60 = assay: Antitumor activity against mouse M-NFS-60 cells xenografted in CD-1 nude mouse assessed as inhibition of tumor growth measured after 4 days of tumor implantation; type: functional, cell-based
# [14] = Aqueous solubility of the compound in water; type: physicochemical
# T2 sequence (P10721 whole entry): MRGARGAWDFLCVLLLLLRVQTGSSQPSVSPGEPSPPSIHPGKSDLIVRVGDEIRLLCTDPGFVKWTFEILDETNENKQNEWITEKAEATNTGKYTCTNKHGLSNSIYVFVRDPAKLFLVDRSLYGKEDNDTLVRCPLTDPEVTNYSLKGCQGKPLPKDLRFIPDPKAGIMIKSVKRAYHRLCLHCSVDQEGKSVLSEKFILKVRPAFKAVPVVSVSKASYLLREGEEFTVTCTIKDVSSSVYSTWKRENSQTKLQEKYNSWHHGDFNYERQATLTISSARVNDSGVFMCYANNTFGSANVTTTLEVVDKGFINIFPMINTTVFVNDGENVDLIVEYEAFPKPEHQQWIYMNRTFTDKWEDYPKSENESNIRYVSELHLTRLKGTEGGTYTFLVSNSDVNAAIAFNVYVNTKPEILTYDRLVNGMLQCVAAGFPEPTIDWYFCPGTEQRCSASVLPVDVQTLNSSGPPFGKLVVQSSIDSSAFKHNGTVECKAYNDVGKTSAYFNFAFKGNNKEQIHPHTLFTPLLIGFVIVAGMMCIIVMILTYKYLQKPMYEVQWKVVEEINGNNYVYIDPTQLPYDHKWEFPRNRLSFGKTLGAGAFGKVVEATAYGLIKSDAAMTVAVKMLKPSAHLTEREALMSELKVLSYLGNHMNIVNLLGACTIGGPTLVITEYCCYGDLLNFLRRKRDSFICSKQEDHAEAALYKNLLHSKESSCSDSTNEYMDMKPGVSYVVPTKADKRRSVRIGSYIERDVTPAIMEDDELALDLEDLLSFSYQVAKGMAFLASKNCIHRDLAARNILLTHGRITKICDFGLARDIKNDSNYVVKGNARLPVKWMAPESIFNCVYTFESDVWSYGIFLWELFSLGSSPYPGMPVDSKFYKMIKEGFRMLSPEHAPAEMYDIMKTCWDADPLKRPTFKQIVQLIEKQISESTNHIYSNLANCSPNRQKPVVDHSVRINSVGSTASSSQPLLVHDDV
# Sequence of Cytochrome P450 2C9 (P11712 whole entry): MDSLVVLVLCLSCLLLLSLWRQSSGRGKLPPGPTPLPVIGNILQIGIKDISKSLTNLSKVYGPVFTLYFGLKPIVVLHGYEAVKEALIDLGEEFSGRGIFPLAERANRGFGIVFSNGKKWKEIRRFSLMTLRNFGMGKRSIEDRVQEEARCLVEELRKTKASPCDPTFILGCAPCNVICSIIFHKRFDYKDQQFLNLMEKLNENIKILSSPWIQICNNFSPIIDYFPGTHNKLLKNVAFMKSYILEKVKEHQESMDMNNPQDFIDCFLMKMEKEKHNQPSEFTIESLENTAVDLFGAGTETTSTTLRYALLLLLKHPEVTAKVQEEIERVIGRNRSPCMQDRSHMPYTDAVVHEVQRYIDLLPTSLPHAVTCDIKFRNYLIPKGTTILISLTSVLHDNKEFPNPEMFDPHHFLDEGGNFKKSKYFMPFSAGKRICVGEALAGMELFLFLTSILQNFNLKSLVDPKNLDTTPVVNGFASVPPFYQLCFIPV
# Sequence of Cytochrome P450 2D6 (P10635 whole entry): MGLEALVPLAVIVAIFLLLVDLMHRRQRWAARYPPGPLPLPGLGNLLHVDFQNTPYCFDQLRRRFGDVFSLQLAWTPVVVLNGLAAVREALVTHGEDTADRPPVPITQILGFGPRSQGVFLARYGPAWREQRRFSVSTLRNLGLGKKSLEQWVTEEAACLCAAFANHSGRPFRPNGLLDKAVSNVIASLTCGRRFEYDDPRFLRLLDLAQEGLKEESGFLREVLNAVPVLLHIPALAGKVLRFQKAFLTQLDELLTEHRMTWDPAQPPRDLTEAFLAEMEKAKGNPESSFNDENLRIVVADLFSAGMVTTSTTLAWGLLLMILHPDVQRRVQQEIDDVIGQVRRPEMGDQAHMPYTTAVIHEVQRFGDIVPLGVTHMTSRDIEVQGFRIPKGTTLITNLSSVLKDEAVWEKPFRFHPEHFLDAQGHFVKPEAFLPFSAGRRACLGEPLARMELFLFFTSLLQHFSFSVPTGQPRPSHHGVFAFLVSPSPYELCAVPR
# Sequence of Cytochrome P450 2C19 (P33261 whole entry): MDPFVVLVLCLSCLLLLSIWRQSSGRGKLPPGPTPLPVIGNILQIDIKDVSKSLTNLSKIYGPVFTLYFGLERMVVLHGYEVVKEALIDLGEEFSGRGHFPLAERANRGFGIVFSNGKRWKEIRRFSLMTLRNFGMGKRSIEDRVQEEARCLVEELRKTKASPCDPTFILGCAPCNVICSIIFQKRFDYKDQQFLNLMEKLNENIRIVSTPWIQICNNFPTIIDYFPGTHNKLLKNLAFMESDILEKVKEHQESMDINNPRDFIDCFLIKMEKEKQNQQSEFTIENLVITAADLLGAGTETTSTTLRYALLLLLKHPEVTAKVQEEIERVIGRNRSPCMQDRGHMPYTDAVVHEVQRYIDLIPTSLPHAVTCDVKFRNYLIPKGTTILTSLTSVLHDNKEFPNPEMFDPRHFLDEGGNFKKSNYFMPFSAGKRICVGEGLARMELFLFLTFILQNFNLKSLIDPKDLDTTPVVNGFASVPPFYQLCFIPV
# Sequence of Cytochrome P450 3A4 (P08684 whole entry): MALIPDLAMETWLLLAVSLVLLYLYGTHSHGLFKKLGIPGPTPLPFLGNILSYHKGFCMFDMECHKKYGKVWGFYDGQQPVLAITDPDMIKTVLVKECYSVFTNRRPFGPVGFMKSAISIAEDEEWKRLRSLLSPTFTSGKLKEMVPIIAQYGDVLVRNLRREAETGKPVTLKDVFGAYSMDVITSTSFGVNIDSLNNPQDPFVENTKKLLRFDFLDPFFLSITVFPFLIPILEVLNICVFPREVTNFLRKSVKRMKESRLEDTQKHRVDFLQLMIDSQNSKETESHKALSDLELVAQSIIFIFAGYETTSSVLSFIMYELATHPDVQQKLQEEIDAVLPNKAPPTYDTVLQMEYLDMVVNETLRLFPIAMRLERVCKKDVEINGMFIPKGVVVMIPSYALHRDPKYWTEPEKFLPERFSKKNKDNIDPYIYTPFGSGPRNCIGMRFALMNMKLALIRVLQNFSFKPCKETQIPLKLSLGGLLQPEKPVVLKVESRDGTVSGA
bioavailability [1] [%],AUC [2] [µM·h],clearance [3] [mL/min/kg],Compound,further results
9.9,0.9,37.6,CCN1CCC(c2ccc(C(=O)Nc3ccc(NC(=O)Nc4cc(C(C)(C)C)on4)cc3)nc2)CC1,–
–,–,–,CC(C)(C)c1cc(NC(=O)Nc2ccc(NC(=O)c3ccc(OC4CCNCC4)cn3)cc2)no1,F (Rattus norvegicus [4]): 1%; AUC (Rattus norvegicus [5]): 1.6 µM·h
20,4.8,25.8,CCN1CCC(Oc2ccc(C(=O)Nc3ccc(NC(=O)Nc4cc(C(C)(C)C)on4)cc3)nc2)CC1,inhibition in vivo at 100 mg/kg [6]: 73%; inhibition in vivo at 30 mg/kg [7]: 46%; inhibition in vivo at 10 mg/kg [8]: 31%; Activity (Rattus norvegicus [9]): Non-toxic; AUC [10]: 9.9 µM·h; Activity (Rattus norvegicus [11]): Toxic; IC50 (Cytochrome P450 3A4): > 40 µM; IC50 (Cytochrome P450 2C19): > 40 µM; IC50 (Cytochrome P450 2D6): > 40 µM; IC50 (Cytochrome P450 1A2): > 40 µM; IC50 (Cytochrome P450 2C9): > 40 µM; Kd [12]: 0.0006 µM; IC50 [13]: 0.0079 µM
8,2.4,11,CC1(C)CC(Oc2ccc(C(=O)Nc3ccc(NC(=O)Nc4cc(C(C)(C)C)on4)cc3)nc2)CC(C)(C)N1,–
–,–,–,CN1C(C)(C)CC(Oc2ccc(C(=O)Nc3ccc(NC(=O)Nc4cc(C(C)(C)C)on4)cc3)nc2)CC1(C)C,inhibition (NFS-60): Dose-dependent effect
36,9.5,12,CC(C)(C)c1cc(NC(=O)Nc2ccc(NC(=O)c3ccc(OC4CCN(C5CC5)CC4)cn3)cc2)no1,–
17.5,3.5,16,CC(C)N1CCC(Oc2ccc(C(=O)Nc3ccc(NC(=O)Nc4cc(C(C)(C)C)on4)cc3)nc2)CC1,–
3,0.4,35.8,CC(C)(C)c1cc(NC(=O)Nc2ccc(NC(=O)c3cc(OC4CCNCC4)ccn3)cc2)no1,–
–,–,–,CCN1CCC(Oc2ccc(C(=O)Nc3ccc(NC(=O)Nc4cc(C(C)(C)C)on4)cc3)nc2)CC1.CS(=O)(=O)O,solubility [14]: 1130 µg/mL
